From patent US5776734A, “DNA encoding the β subunit of a mammalian maxi-K potassium channel” (Merck & Co., Inc., priority 1996, dated 1998)

Assays:
[1] = target: T1, purified maxi-K channel from bovine tracheal smooth muscle (Bos taurus, UniProt Q28067+Q28204); assay: [125I]ChTX binding to purified maxi-K channel (ChTX receptor); conditions: for inhibition of 125I-ChTX binding to the purified maxi-K channel: in a manner similar to native tissue channels
T1 construct: Purified sarcolemmal membrane vesicles derived from bovine tracheal smooth muscle; from tissue; host or cells: bovine tracheal smooth muscle sarcolemmal membranes
Experimental: Purified sarcolemmal membrane vesicles derived from bovine tracheal smooth muscle were prepared as previously described (Slaughter, R. S., Shevell, J. L., Felix, J. P., Garcia, M. L., and Kaczorowski, G. J., Biochemistry 28, 3995-4002 (1989)). The interaction of [^125 I]ChTX (New England Nuclear Corporation) with maxi-K channels in bovine tracheal sarcolemmal membrane vesicles was monitored as outlined previously (Vazquez, J., Feigenbaum, P., Katz, G., King, V. F., Reuben, J. P., Roy-Contancin, L., Slaughter, R. S., Kaczorowski, G. J., and Garcia, M. L., J. Biol. Chem. 264, 20902-20909 (1989)). Binding of radiolabeled toxin to solubilized channels was measured by incubating aliquots of solubilized material in 0.05% digitonin with [^125 I]ChTX as described (Garcia-Calvo, M., Vazquez, J., Smith, M., Kaczorowski, G. J., and Garcia, M. L. Biochemistry 30, 11157-11164 (1991)). At the end of the incubation period, protein was precipitated by addition of 10% (w/v) PEG (Mw~8000) in the presence of […] and the precipitate was immediately collected onto GF/C glass fiber filters (Whatman) that had been presoaked in 0.5% polyethylenimine. Nonspecific binding was determined in the presence of 10 nM ChTX (Peninsula Laboratories). For each experiment, triplicate assays were routinely performed, and the data were averaged. The standard error of the mean of these replicates was typically less than 3%.

[2] = test system: maxi-K channel α subunit (mslo19) expressed in Xenopus oocytes; assay: Two-electrode voltage clamp of Xenopus oocytes injected with α subunit cRNA alone; assay type: cell-based, mouse; conditions: for block of outward potassium currents: no concentration given; for block of outward currents in whole-oocyte voltage clamp: toxin at 10 to 30 nM
Source text: (§1) cDNAs encoding both the α and β subunits were used as templates for the production of cRNA. The α subunit cDNA was obtained from Leo Pallanck (Univ. of Wisconsin) and consisted of a full-length mouse brain cDNA (mslo19; GenBank Accession #U09383) in an RNA transcription vector, pGH. […] We therefore used standard techniques to modify the mslo19 cDNA, specifically by deleting the 5' non-coding sequence (bases 1 to 940), and replacing that sequence with a consensus eukaryotic translation initiation sequence: 5'-GCCGCCACC-3'. […] A fragment of the β subunit cDNA, including the entire open reading frame, was subcloned into a pGEM (Promega, inc.) vector for cRNA transcription. The cRNAs encoding both the α and β subunits were transcribed using the appropriate RNA polymerase as determined by the transcription vector (T7 for α, and SP6 for β) and capped in vitro using a kit (mCAP; Stratagene, inc), purified by size-exclusion chromatography using sepahadex G-50 spin columns (Bio-Rad, inc.), and analyzed for purity and length by agarose/formaldehyde gel electrophoresis according to established procedures. Following ethanol precipitation, cRNAs were resuspended in sterile, DEPC-treated water at a concentration of 0.1 to 1 μg/μl, and stored in 2 μl aliquots at -8° C.
Injection of mRNA or cRNA into Xenopus oocytes was done by a modification of established protocols (A. Coleman, Transcription and Translation: A Practical Approach. B. D. Hanes, S. J. Higgins, Eds., 1984); Y. Masu, et al., Nature 329, 836-838 (1987)). Oocytes were surgically removed from 0.17% tricaine anesthetized Xenopus laevis (Xenopus One). The excised ovarian lobes were teased apart with jeweler's forceps and then placed into OR-2 (82.5 mM NaCl, 2 mM KCl, 1 mM MgCl2, 5 mM HEPES, pH 7.4) containing 2 mg/ml collagenase β (Boehringer Mannhiem) for 2 hours at room temperature with a change of the buffer at 1 hour. Isolated oocytes were repeatedly washed in OR-2 until the supernatant remained clear. Stage 5 and 6 oocytes were selected and cultured overnight in supplemented OR-2 (OR-2 containing 1.8 mM CaCl2 and 0.5 mg/ml gentamycin. Oocytes were injected with 46 nl of RNA at a concentration of 0.1 to 1.0 mg/ml in H2 O. RNA was injected using a Nanoject automatic oocyte injector (Drummond Scientific) and injection needles were pulled from 3.5" Drummond capillaries using a Micropipette puller (Kopf Instruments).
Currents were recorded from Xenopus oocytes using two-electrode voltage-clamp methods to record currents from the entire oocyte and patch-clamp methods to record current from small patches of membrane excised from the oocytes. Recordings were done at room temperature and were performed 1 to 30 days after injection. […]

[3] = target: T2, 31,000 component (β subunit) of purified ChTX receptor (Bos taurus, UniProt Q28067+Q28204); assay: Covalent crosslinking of [125I]ChTX to purified receptor with disuccinimidyl suberate, SDS-PAGE; assay type: binding, bovine; conditions: in the presence of disuccinimidyl suberate
T2 construct: Purified sarcolemmal membrane vesicles derived from bovine tracheal smooth muscle; from tissue; host or cells: bovine tracheal smooth muscle sarcolemmal membranes
Experimental: Fractions from the last sucrose density gradient centrifugation containing 31-158 ng of protein were dialyzed against 10 mM Na-borate, pH 9.0, 0.05% Triton X-100 and then reacted with 3.5 mCi of [^125 I]Bolton-Hunter reagent (2200 Ci/mmol; New England Nuclear Corporation) for 15 min on ice. The reaction was quenched by addition of Tris-HCl, pH 7.4 to a final concentration of 100 mM. Covalent incorporation of [^125 I]ChTX into the purified receptor was accomplished with the bifunctional reagent, disuccinimidyl suberate as previously described for crosslinking ChTX to its receptor in membranes (Garcia-Calvo, M., Vazquez, J., Smith, M., Kaczorowski, G. J., and Garcia, M. L. (1991) Biochemistry 30, 11157-11164). Briefly, the purified receptor preparation was incubated with 130 pM [^125 I]ChTX in 10 mM NaCl, 10 mM Taps-NaOH, pH 9.0, 0.1% digitonin, in the absence or presence of unlabeled ChTX, for two hours at room temperature. The solution was then adjusted to 0.2M NaCl and disuccinimidyl suberate was added to a final concentration of 0.18 mM. After incubation at room temperature for 1 min, the reaction was stopped by addition of Tris-HCl, pH 7.4 to a final concentration of 200 mM. Samples were dialyzed against 10 mM Tris-HCl, pH 7.4, 0.05% digitonin, concentrated 10 fold, and subjected to SDS-PAGE. […]

[4] = test system: maxi-K channel α and β subunits coexpressed in Xenopus oocytes; assay: Two-electrode voltage clamp of Xenopus oocytes injected with α and β subunit cRNAs; assay type: cell-based, mouse α subunit, bovine β subunit; conditions: oocytes injected with both α and β subunit cRNAs
Source text: as §1, with “Following ethanol precipitation, cRNAs were resuspended in sterile, DEPC-treated water at a concentration of 0.1 to 1 μg/μl, and stored in 2 μl aliquots at -8° C.” left out
(§2) Currents were recorded from Xenopus oocytes using two-electrode voltage-clamp methods to record currents from the entire oocyte and patch-clamp methods to record current from small patches of membrane excised from the oocytes. […]

[5] = target: maxi-K channel α subunit (mslo19) expressed in Xenopus oocytes (Mus musculus, UniProt Q08460); assay: Patch clamp of excised inside-out patches from oocytes injected with α subunit cRNA alone; assay type: cell-based; conditions: 100-500 nM
Source text: as §1, with “Following ethanol precipitation, cRNAs were resuspended in sterile, DEPC-treated water at a concentration of 0.1 to 1 μg/μl, and stored in 2 μl aliquots at -8° C.” left out
as §2

[6] = target: maxi-K channel α and β subunits coexpressed in Xenopus oocytes (UniProt Q08460+Q28067); assay: Patch clamp of excised inside-out patches from oocytes injected with α and β subunit cRNAs; assay type: cell-based, mouse α subunit, bovine β subunit; conditions: both subunits; 100-300 nM applied to the intracellular face of the channel
Source text: as §1, with “Following ethanol precipitation, cRNAs were resuspended in sterile, DEPC-treated water at a concentration of 0.1 to 1 μg/μl, and stored in 2 μl aliquots at -8° C.” left out
as §2

T1 sequence (Q28204 whole entry): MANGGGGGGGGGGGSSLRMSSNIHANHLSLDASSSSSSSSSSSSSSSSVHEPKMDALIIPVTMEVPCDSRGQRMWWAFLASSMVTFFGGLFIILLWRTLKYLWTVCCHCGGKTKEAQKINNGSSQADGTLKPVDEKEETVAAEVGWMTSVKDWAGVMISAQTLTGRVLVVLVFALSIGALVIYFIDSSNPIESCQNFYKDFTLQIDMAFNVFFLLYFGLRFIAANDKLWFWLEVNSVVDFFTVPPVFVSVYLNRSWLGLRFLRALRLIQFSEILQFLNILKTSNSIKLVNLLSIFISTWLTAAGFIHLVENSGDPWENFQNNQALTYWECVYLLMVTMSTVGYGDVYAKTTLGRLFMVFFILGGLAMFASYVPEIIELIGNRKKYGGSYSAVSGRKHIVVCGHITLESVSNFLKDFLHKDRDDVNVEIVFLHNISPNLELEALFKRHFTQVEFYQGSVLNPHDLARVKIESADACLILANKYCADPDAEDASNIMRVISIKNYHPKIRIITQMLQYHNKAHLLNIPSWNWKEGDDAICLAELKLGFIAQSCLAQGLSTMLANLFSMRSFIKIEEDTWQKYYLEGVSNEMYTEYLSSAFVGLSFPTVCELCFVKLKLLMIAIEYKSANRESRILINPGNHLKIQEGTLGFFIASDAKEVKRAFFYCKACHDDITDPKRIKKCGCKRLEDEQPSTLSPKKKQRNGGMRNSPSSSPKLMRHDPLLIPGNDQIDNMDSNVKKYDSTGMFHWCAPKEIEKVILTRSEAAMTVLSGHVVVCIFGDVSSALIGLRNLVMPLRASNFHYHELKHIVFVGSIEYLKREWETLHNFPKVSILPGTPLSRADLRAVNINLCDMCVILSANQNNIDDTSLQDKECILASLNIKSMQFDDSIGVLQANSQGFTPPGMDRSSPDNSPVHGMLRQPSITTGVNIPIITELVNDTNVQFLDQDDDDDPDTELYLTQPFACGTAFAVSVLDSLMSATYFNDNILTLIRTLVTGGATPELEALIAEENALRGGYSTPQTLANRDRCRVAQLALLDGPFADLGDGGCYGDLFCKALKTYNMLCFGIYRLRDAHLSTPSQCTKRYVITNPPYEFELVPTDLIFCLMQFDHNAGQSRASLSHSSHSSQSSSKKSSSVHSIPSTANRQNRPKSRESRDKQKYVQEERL
T1 sequence (Q28067 2-191): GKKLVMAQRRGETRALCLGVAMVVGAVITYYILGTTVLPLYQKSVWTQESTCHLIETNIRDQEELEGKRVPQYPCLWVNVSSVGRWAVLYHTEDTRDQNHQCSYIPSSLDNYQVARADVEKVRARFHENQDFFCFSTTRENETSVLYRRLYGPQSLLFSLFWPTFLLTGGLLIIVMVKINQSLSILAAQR
maxi-K channel α subunit (mslo19) expressed in Xenopus oocytes, sequence (Q08460 66-642 limits assumed): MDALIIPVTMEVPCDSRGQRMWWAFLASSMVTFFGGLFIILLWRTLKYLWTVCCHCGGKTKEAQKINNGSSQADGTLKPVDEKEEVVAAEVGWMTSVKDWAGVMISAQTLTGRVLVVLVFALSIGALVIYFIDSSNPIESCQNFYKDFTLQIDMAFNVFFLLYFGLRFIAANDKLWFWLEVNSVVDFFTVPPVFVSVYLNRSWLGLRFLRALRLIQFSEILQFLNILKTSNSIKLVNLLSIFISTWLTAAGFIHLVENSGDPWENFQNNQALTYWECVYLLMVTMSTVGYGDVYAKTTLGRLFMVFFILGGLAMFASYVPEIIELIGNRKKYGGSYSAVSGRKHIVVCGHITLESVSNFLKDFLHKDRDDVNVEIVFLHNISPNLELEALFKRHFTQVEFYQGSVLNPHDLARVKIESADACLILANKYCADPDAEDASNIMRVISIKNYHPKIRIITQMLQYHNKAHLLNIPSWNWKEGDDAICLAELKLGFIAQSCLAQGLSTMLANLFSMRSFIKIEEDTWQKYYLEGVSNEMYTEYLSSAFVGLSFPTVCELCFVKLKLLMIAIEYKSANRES
T2 sequence (Q28204 whole entry): as the sequence (Q28204 whole entry) above
T2 sequence (Q28067 2-191): as the sequence (Q28067 2-191) above
maxi-K channel α and β subunits coexpressed in Xenopus oocytes, sequence (Q08460 66-642 limits assumed): as the sequence (Q08460 66-642 limits assumed) above
maxi-K channel α and β subunits coexpressed in Xenopus oocytes, sequence (as listed by the source): as the sequence (Q28067 2-191) above
maxi-K channel α subunit (mslo19) expressed in Xenopus oocytes (Mus musculus, UniProt Q08460), sequence (Q08460 whole entry): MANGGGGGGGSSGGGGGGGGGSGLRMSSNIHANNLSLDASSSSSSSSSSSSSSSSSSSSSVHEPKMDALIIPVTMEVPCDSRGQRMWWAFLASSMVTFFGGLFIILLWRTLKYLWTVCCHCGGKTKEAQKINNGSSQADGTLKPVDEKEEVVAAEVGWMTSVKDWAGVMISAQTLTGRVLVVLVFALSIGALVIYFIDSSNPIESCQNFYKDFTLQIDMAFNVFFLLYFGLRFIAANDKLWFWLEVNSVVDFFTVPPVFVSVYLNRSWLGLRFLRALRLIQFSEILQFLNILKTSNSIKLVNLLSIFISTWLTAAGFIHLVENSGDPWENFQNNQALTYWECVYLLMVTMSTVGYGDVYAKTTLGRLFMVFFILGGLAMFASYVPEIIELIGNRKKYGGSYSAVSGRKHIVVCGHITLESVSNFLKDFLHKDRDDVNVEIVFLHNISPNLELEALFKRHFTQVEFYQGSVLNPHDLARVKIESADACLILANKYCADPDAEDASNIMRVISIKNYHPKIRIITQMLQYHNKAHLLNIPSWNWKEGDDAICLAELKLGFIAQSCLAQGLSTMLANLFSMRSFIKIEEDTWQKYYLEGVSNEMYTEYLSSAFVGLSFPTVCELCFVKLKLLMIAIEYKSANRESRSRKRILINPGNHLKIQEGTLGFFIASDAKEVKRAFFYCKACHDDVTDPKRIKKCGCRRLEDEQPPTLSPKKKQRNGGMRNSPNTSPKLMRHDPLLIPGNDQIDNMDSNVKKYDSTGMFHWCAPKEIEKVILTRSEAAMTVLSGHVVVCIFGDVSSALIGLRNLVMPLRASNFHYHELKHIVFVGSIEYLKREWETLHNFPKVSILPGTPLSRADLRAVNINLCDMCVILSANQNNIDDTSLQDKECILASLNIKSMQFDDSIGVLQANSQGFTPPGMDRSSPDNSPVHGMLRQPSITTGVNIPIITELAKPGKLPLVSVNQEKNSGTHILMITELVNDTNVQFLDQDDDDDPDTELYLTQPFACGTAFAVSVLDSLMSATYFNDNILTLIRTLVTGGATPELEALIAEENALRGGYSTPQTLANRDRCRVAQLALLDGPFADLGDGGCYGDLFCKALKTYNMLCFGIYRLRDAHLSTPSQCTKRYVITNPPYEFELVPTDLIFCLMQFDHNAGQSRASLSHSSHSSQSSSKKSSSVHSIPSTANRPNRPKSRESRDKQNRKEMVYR
maxi-K channel α and β subunits coexpressed in Xenopus oocytes (UniProt Q08460+Q28067), sequence (Q08460 whole entry): as above
maxi-K channel α and β subunits coexpressed in Xenopus oocytes (UniProt Q08460+Q28067), sequence (Q28067 whole entry): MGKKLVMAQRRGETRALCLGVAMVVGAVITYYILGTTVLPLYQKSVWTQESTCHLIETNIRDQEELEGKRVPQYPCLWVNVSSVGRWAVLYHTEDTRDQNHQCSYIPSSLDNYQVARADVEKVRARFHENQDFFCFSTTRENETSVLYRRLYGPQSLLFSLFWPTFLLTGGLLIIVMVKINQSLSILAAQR

Compound: [Cs] [cesium]
- inhibition of 125I-ChTX binding to the purified maxi-K channel [1]: inhibited

Compound: iberiotoxin (QFTDVDCSVSKECWSVCKDLFGVDRGKCMGKKCRCYQ) [IbTX]
- inhibition of 125I-ChTX binding to the purified maxi-K channel [1]: inhibited
- block of outward potassium currents [2]: blocked
- block of outward currents in whole-oocyte voltage clamp [2]: blocked
- effect on [125I]ChTX labeling of the 31,000 component [3]: abolished
- block of outward potassium currents [4]: blocked

Compound: ^125 I-ChTX: radiolabeled toxin (New England Nuclear Corporation)
- binding affinity for the purified channel compared with the native maxi-K channel ([1]; purified channel from bovine tracheal smooth muscle): similar

Compound: limbatustoxin [LbTX]
- inhibition of 125I-ChTX binding to the purified maxi-K channel [1]: inhibited

Compound: dehydrosoyasaponin I [DHS-I]
- effect on channel open probability / patch currents [5]: not increased
- channel activation [6]: fully activated

Compound: charybdotoxin [ChTX]
- inhibition of 125I-ChTX binding to the purified maxi-K channel [1]: inhibited
- block of outward potassium currents [2]: blocked
- block of outward currents in whole-oocyte voltage clamp [2]: blocked
- block of outward potassium currents [4]: blocked

Compound: [K+] [potassium]
- inhibition of 125I-ChTX binding to the purified maxi-K channel [1]: inhibited
- effect on [125I]ChTX labeling of the 31,000 component [3]: abolished

Compound: [Ba] [barium]
- inhibition of 125I-ChTX binding to the purified maxi-K channel [1]: inhibited
